Legend:
Test in all cases: Test C preemergence
Type in all cases: in vivo
[1] = test system: Sunflower; conditions: Rate 250 g/ha, scale 0 to 100, 0 no effect, 100 complete control
[2] = test system: yellow nutsedge (Cyperus esculentus)
Summary of the method: (§1)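 Compounds in non-phytotoxic solvent with surfactant applied preemergence to planted seeds and postemergence to plants at 1- to 4-leaf stage (2–18 cm). Kept in greenhouse 12–14 days, then visually rated against controls on a 0 (no effect) to 100 (complete control) scale.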

[3] = test system: crabgrass (Digitaria sanguinalis); conditions: for Plant response rating (0 to 100), Crabgrass: visual evaluation after 12 to 14 days
Summary of the method: as §1

[4] = test system: goosegrass (Eleusine indica); conditions: for Plant response rating (0 to 100), Goosegrass: visual evaluation after 12 to 14 days
Summary of the method: as §1

[5] = test system: corn (Zea mays); conditions: for Plant response rating (0 to 100), Corn: visual evaluation after 12 to 14 days
Summary of the method: as §1

[6] = test system: woolly cupgrass (Eriochloa villosa); conditions: for Plant response rating (0 to 100), Cupgrass, Woolly: visual evaluation after 12 to 14 days
Summary of the method: as §1

[7] = test system: bermudagrass (Cynodon dactylon); conditions: for Plant response rating (0 to 100 where 0 is no effect and 100 is complete control), Bermudagrass: visual evaluation after 12 to 14 days
Summary of the method: as §1

[8] = test system: johnsongrass (Sorghum halepense); conditions: for Plant response rating (0 to 100), Johnsongrass: visual evaluation after 12 to 14 days
Summary of the method: as §1

[9] = test system: morningglory (Ipomoea hederacea)
Summary of the method: as §1

[10] = test system: cocklebur (Xanthium strumarium); conditions: for Plant response rating (0 to 100), Cocklebur: visual evaluation after 12 to 14 days
Summary of the method: as §1

[11] = test system: velvetleaf (Abutilon theophrasti)
Summary of the method: as §1

[12] = test system: Sunflower; conditions: Rate 125 g/ha; scale 0 to 100, 0 no effect, 100 complete control
[13] = test system: soybean (Glycine max)
Summary of the method: as §1

[14] = test system: pigweed (Amaranthus retroflexus)
Summary of the method: as §1

[15] = test system: common ragweed (Ambrosia elatior)
Summary of the method: as §1

[16] = test system: lambsquarters (Chenopodium album)
Summary of the method: as §1

[17] = test system: Surinam grass (Brachiaria decumbens); conditions: for Plant response rating (0 to 100), Surinam grass: visual evaluation after 12 to 14 days
Summary of the method: as §1

[18] = test system: giant foxtail (Setaria faberii); conditions: for Plant response rating (0 to 100), Foxtail, Giant: visual evaluation after 12 to 14 days
Summary of the method: as §1

[19] = test system: Nightshade
[20] = test system: kochia (Kochia scoparia); conditions: for Plant response rating (0 to 100), Kochia: visual evaluation after 12 to 14 days
Summary of the method: as §1

[21] = Rate 125 g/ha, scale 0 to 100, 0 no effect, 100 complete control
[22] = preemergence, Rate 62 g/ha, scale 0 to 100
[23] = preemergence, Rate 500 g/ha, visual evaluation after 12 to 14 days
[24] = preemergence, Rate 250 g/ha, scale 0 to 100, 0 no effect, 100 complete control

CSc1cccc(N2CCC(n3ccc(C(C)(C)C)n3)C2=O)c1 (stereo not drawn) [Compound 86]
0: Plant response rating, Nutsedge [2, 21] | Plant response rating, Nutsedge [2, 22] | Plant response rating (0 to 100), Nutsedge [2, 23] | Plant response rating, Nutsedge [2, 24] | Plant response rating, Crabgrass [3, 22] | Plant response rating, Corn [5, 21] | Plant response rating, Corn [5, 22] | Plant response rating (0 to 100), Corn ([5]; preemergence, Rate 250 g/ha) | Plant response rating, Morningglory [9, 21] | Plant response rating, Morningglory [9, 22] | Plant response rating, Morningglory [9, 24] | Plant response rating, Cocklebur [10, 21] | Plant response rating, Cocklebur [10, 22] | Plant response rating (0 to 100), Cocklebur ([10]; preemergence, Rate 250 g/ha) | Plant response rating (0 to 100), Cocklebur ([10]; preemergence, Rate 500 g/ha) | Plant response rating, Velvetleaf [11, 21] | Plant response rating, Velvetleaf [11, 22] | Plant response rating, Velvetleaf [11, 24] | Plant response rating, Soybean [13, 21] | Plant response rating, Soybean [13, 22] | Plant response rating (0 to 100), Soybean [13, 23] | Plant response rating, Soybean [13, 24] | Plant response rating, Pigweed [14, 24] | Plant response rating, Ragweed, Common [15, 21] | Plant response rating, Ragweed, Common [15, 22] | Plant response rating (0 to 100), Ragweed, Common [15, 23] | Plant response rating, Ragweed, Common [15, 24] | Plant response rating, Foxtail, Giant [18, 21] | Plant response rating, Foxtail, Giant [18, 22] | Plant response rating, Nightshade ([19]; Rate 62 g/ha, scale 0 to 100) | Plant response rating, Nightshade [19, 21] | Plant response rating, Nightshade ([19]; Rate 250 g/ha, scale 0 to 100, 0 no effect, 100 complete control)
70: Plant response rating (0 to 100), Velvetleaf [11, 23] | Plant response rating, Pigweed [14, 22] | Plant response rating, Kochia [20, 22]
40: Plant response rating (0 to 100), Johnsongrass ([8]; preemergence, Rate 250 g/ha)
90: Plant response rating, Crabgrass [3, 21] | Plant response rating, Goosegrass [4, 21] | Plant response rating (0 to 100), Cupgrass, Woolly ([6]; preemergence, Rate 250 g/ha) | Plant response rating (0 to 100 where 0 is no effect and 100 is complete control), Bermudagrass ([7]; preemergence, Rate 250 g/ha) | Plant response rating, Kochia [20, 21]
50: Plant response rating (0 to 100), Johnsongrass ([8]; preemergence, Rate 500 g/ha)
20: Plant response rating, Sunflower [1] | Plant response rating, Johnsongrass [8, 21] | Plant response rating, Johnsongrass [8, 22] | Plant response rating, Sunflower [12] | Plant response rating, Surinam grass [17, 21] | Plant response rating, Surinam grass [17, 22] | Plant response rating (0 to 100), Surinam grass ([17]; preemergence, Rate 250 g/ha)
10: Plant response rating, Bermudagrass [7, 22]
30: Plant response rating (0 to 100), Corn ([5]; preemergence, Rate 500 g/ha) | Plant response rating, Cupgrass, Woolly [6, 21] | Plant response rating, Cupgrass, Woolly [6, 22] | Plant response rating, Bermudagrass [7, 21] | Plant response rating (0 to 100), Surinam grass ([17]; preemergence, Rate 500 g/ha)
80: Plant response rating (0 to 100), Foxtail, Giant ([18]; preemergence, Rate 250 g/ha)
100: Plant response rating (0 to 100), Crabgrass ([3]; preemergence, Rate 250 g/ha) | Plant response rating (0 to 100), Crabgrass ([3]; preemergence, Rate 500 g/ha) | Plant response rating, Goosegrass [4, 22] | Plant response rating (0 to 100), Goosegrass ([4]; preemergence, Rate 250 g/ha) | Plant response rating (0 to 100), Goosegrass ([4]; preemergence, Rate 500 g/ha) | Plant response rating (0 to 100), Cupgrass, Woolly ([6]; preemergence, Rate 500 g/ha) | Plant response rating (0 to 100 where 0 is no effect and 100 is complete control), Bermudagrass ([7]; preemergence, Rate 500 g/ha) | Plant response rating, Pigweed [14, 21] | Plant response rating (0 to 100), Pigweed [14, 23] | Plant response rating, Lambsquarters [16, 21] | Plant response rating, Lambsquarters [16, 22] | Plant response rating (0 to 100), Lambsquarters [16, 23] | Plant response rating, Lambsquarters [16, 24] | Plant response rating (0 to 100), Foxtail, Giant ([18]; preemergence, Rate 500 g/ha) | Plant response rating (0 to 100), Kochia ([20]; preemergence, Rate 250 g/ha) | Plant response rating (0 to 100), Kochia ([20]; preemergence, Rate 500 g/ha)
